Literature values, collected in article PMC8513935.

Assays:
[1] = experimental, compiled by the authors from the literature (the ESI cites the sources)
[2] = derived by the authors as gas->solvent minus gas->water (a hypothetical dry solvent; the ESI), not a two-phase measurement
[3] = log P octanol/water from commercial databases, averaged (the ESI); settings: Octanol (wet), 25 C

## C1CCOCC1
[1]; Chloroform, 25 C
  log K of transfer, gas to solvent: 4.28 log10 K
[1]; Cyclohexane, 25 C
  log K of transfer, gas to solvent: 3.23 log10 K
[1]; Hexadecane, 25 C
  log K of transfer, gas to solvent: 3.02 log10 K
[1]; Octan-1-ol, 25 C
  log K of transfer, gas to solvent: 3.22 log10 K
[1]; Water, 25 C
  log K of transfer, gas to solvent: 2.31 log10 K
[2]; Chloroform, 25 C
  log K of transfer, water to solvent: 1.97 log10 K
[2]; Cyclohexane, 25 C
  log K of transfer, water to solvent: 0.92 log10 K
[2]; Hexadecane, 25 C
  log K of transfer, water to solvent: 0.707 log10 K
[2]; Octan-1-ol(dry), 25 C
  log K of transfer, water to solvent: 0.91 log10 K
[3]
  log K of transfer, water to solvent: 0.795 log10 K

## Oc1ccccc1
[1]; 1,2-Dichloroethane, 25 C
  log K of transfer, gas to solvent: 5.46 log10 K
[1]; Benzene, 25 C
  log K of transfer, gas to solvent: 5.22 log10 K
[1]; CCl4, 25 C
  log K of transfer, gas to solvent: 4.55 log10 K
[1]; Chlorobenzene, 25 C
  log K of transfer, gas to solvent: 5.1 log10 K
[1]; Chloroform, 25 C
  log K of transfer, gas to solvent: 5.17 log10 K
[1]; Cyclohexane, 25 C
  log K of transfer, gas to solvent: 4.03 log10 K
[1]; Dichloromethane, 25 C
  log K of transfer, gas to solvent: 5.49 log10 K
[1]; Hexadecane, 25 C
  log K of transfer, gas to solvent: 3.76 log10 K
[1]; Hexane, 25 C
  log K of transfer, gas to solvent: 3.67 log10 K
[1]; Octan-1-ol, 25 C
  log K of transfer, gas to solvent: 5.68 log10 K
[1]; Perfluoroalkane, 25 C
  log K of transfer, gas to solvent: 2.23 log10 K
[1]; Toluene, 25 C
  log K of transfer, gas to solvent: 5.08 log10 K
[1]; Water, 25 C
  log K of transfer, gas to solvent: 4.85 log10 K
[2]; 1,2-Dichloroethane, 25 C
  log K of transfer, water to solvent: 0.61 log10 K
[2]; Benzene, 25 C
  log K of transfer, water to solvent: 0.37 log10 K
[2]; CCl4, 25 C
  log K of transfer, water to solvent: -0.3 log10 K
[2]; Chlorobenzene, 25 C
  log K of transfer, water to solvent: 0.25 log10 K
[2]; Chloroform, 25 C
  log K of transfer, water to solvent: 0.32 log10 K
[2]; Cyclohexane, 25 C
  log K of transfer, water to solvent: -0.813 log10 K
[2]; Dichloromethane, 25 C
  log K of transfer, water to solvent: 0.64 log10 K
[2]; Hexadecane, 25 C
  log K of transfer, water to solvent: -1.08 log10 K
[2]; Hexane, 25 C
  log K of transfer, water to solvent: -1.18 log10 K
[2]; Octan-1-ol(dry), 25 C
  log K of transfer, water to solvent: 0.83 log10 K
[2]; Perfluoroalkane, 25 C
  log K of transfer, water to solvent: -2.62 log10 K
[2]; Toluene, 25 C
  log K of transfer, water to solvent: 0.23 log10 K
[3]
  log K of transfer, water to solvent: 1.5 log10 K

## CC(C)c1ccccc1
[1]; Hexadecane, 25 C
  log K of transfer, gas to solvent: 4.08 log10 K
[1]; Methanol, 25 C
  log K of transfer, gas to solvent: 3.8 log10 K
[1]; Octan-1-ol, 25 C
  log K of transfer, gas to solvent: 3.98 log10 K
[1]; Propan-2-ol, 25 C
  log K of transfer, gas to solvent: 3.79 log10 K
[1]; Propanone, 25 C
  log K of transfer, gas to solvent: 4.32 log10 K
[1]; Tetrahydrofuran, 25 C
  log K of transfer, gas to solvent: 4.77 log10 K
[1]; Water, 25 C
  log K of transfer, gas to solvent: 0.22 log10 K
[2]; Acetone, 25 C
  log K of transfer, water to solvent: 4.1 log10 K
[2]; Hexadecane, 25 C
  log K of transfer, water to solvent: 3.86 log10 K
[2]; Methanol, 25 C
  log K of transfer, water to solvent: 3.58 log10 K
[2]; Octan-1-ol(dry), 25 C
  log K of transfer, water to solvent: 3.76 log10 K
[2]; Propan-2-ol, 25 C
  log K of transfer, water to solvent: 3.57 log10 K
[2]; Tetrahydrofuran, 25 C
  log K of transfer, water to solvent: 4.55 log10 K
[3]
  log K of transfer, water to solvent: 3.66 log10 K
